What was measured:
Type in all cases: biochemical
MAGL [1] = target: T1, MAGL (Mus musculus, UniProt O35678); test: In vitro competitive activity-based protein profiling (mouse), MAGL gel band; conditions: for inhibition at 1 µM: read-out: MAGL % inh. 1 μM; for IC50: mouse
T1 construct: Proteomes (mouse brain membrane fraction or cell lysates); from tissue; host or cells: mouse brain membrane fraction (or cell lysates)
T1 sequence (O35678 1-303): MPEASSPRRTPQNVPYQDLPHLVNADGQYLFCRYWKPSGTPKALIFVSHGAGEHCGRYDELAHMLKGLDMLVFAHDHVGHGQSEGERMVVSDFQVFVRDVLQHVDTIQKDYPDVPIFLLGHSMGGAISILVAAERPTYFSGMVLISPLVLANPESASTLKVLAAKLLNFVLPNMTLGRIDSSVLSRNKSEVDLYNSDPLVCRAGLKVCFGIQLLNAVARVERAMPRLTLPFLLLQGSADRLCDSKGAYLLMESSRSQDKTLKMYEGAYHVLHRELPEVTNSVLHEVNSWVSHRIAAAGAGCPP
Procedure, shortened: (§1)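 Competitive ABPP: inhibitors at varying concentrations were given 30 min at 37 °C with mouse brain membranes or cell lysates (1.0 mg/mL total protein) before 30 min labelling by FP-Rh or HT-01 (stock 50 μM in DMSO). Residual hydrolase activity read as in-gel fluorescence of MAGL and FAAH bands.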

FAAH = target: T2, FAAH (Mus musculus, UniProt O08914); test: In vitro competitive activity-based protein profiling (mouse), FAAH gel band; conditions: for inhibition at 1 µM: read-out: FAAH % inh. 1 μM; for IC50: mouse
T2 construct: Proteomes (mouse brain membrane fraction or cell lysates); from tissue; host or cells: mouse brain membrane fraction (or cell lysates)
T2 sequence (O08914 1-579): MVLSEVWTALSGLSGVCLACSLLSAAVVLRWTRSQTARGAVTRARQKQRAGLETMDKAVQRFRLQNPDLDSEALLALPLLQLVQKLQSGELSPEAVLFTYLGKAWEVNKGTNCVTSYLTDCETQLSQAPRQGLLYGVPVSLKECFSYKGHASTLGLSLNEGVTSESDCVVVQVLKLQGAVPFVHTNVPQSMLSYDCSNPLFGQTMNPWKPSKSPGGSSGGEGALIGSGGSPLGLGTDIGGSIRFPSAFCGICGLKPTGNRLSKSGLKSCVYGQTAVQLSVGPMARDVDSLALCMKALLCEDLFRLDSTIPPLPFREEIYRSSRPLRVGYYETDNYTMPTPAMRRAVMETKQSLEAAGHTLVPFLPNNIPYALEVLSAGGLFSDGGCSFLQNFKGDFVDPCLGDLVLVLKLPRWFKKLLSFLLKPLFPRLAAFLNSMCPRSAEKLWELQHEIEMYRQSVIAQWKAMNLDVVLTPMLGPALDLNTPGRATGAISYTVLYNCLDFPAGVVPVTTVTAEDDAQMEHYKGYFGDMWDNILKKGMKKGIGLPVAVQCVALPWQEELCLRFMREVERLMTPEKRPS
Procedure, shortened: as §1

MAGL [2] = target: T3, MAGL (Homo sapiens, UniProt Q99685); test: In vitro competitive activity-based protein profiling (human), MAGL gel band
T3 construct: Proteomes (human prefrontal cortex or cell membrane fractions); from tissue; host or cells: human prefrontal cortex (or cell membrane fractions)
T3 sequence (Q99685 1-303): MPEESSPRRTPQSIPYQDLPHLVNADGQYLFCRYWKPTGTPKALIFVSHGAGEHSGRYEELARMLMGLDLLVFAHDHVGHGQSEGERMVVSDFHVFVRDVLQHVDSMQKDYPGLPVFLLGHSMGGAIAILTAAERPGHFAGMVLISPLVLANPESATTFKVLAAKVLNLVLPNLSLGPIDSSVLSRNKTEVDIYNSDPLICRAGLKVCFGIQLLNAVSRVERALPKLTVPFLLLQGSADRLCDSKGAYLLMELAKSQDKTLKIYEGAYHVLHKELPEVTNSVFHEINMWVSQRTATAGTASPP
Procedure, shortened: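 Human prefrontal cortex or cell membrane proteomes (1.0-2.0 mg/mL protein) preincubated with inhibitors 30 min at 37° C, then labelled with FP-Rh or JW912 probe 30 min at room temperature. Residual MAGL activity read as fluorescent gel-band intensity after SDS-PAGE.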

Structure (SMILES)	inhibition at 1 µM (MAGL [1]) [%]	inhibition at 1 µM (FAAH) [%]	IC50 (MAGL [2]) [µM]	inhibition at 1 µM (MAGL [2]; at 1 μM, read-out: MAGL human % inh at 1 μM) [%]	IC50 (MAGL [1]) [µM]	IC50 (FAAH) [µM]
CS(=O)(=O)Nc1ccn(C(=O)N2CCN(Cc3ccc(C(F)(F)F)cc3N3CCN(C(=O)CO)CC3)CC2)n1 [Example 116, N-(1-(4-(2-(4-(2-hydroxyacetyl)piperazin-1-yl)-4-(trifluoromethyl)benzyl)piperazine-1-carbonyl)-1H-pyrazol-3-yl)methanesulfonamide]	≥ 75	0 to 25	≤ 0.1	–	–	–
CS(=O)(=O)Nc1ccn(C(=O)N2CCC3(CCCN3Cc3ccc(C(F)(F)F)cc3N3CCC(F)CC3)CC2)n1 [Example 178, N-(1-(1-(2-(4-fluoropiperidin-1-yl)-4-(trifluoromethyl)benzyl)-1,8-diazaspiro[4.5]decane-8-carbonyl)-1H-pyrazol-3-yl) methanesulfonamide]	≥ 75	0 to 25	≤ 0.1	–	–	–
CS(=O)(=O)Nc1ccn(C(=O)N2CCN(Cc3ccc(C(F)(F)F)cc3C3CCN(CC(=O)O)CC3)CC2)n1 [Example 118, 2-(4-(2-((4-(3-(methylsulfonamido)-1H-pyrazole-1-carbonyl)piperazin-1-yl)methyl)-5-(trifluoromethyl)phenyl)piperidin-1-yl)acetic Acid]	0 to 25	0 to 25	–	25	–	–
CS(=O)(=O)Nc1ccn(C(=O)N2CCN(Cc3cccc(-c4cccnc4)c3)CC2)n1 [Example 120, N-(1-(4-(3-(pyridin-3-yl)benzyl)piperazine-1-carbonyl)-1H-pyrazol-3-yl) methanesulfonamide]	≥ 75	0 to 25	≤ 0.1	–	0.1 to 1	1 to 10
CS(=O)(=O)Nc1ccn(C(=O)N2CCN(Cc3cc(C(F)(F)F)ccc3N3CCCC3)CC2)n1 [Example 180, N-(1-(4-(2-(pyrrolidin-1-yl)-5-(trifluoromethyl)benzyl)piperazine-1-carbonyl)-1H-pyrazol-3-yl) methanesulfonamide]	≥ 75	0 to 25	≤ 0.1	–	–	–
CS(=O)(=O)Nc1ccn(C(=O)N2CCN(Cc3ccc(N4CCOCC4)c(C(F)(F)F)c3)CC2)n1 [Example 167, N-[1-[(4-[[4-(morpholin-4-yl)-3-(trifluoromethyl)phenyl]methyl]piperazin-1-yl)carbonyl]-1H-pyrazol-3-yl] methanesulfonamide]	≥ 75	0 to 25	≤ 0.1	–	–	–
CS(=O)(=O)Nc1ccn(C(=O)N2CCN(Cc3ccc(C(F)(F)F)cc3N3CCC(S(C)(=O)=O)CC3)CC2)n1 [Example 209, N-(1-(4-(2-(4-(methylsulfonyl)piperidin-1-yl)-4-(trifluoromethyl)benzyl)piperazine-1-carbonyl)-1H-pyrazol-3-yl) methanesulfonamide]	≥ 75	0 to 25	≤ 0.1	–	–	–
CS(=O)(=O)Nc1ccn(C(=O)N2CCC3(CCCN3Cc3ccc(C(F)(F)F)cc3Cl)CC2)n1 [Example 197, N-(1-(1-(2-chloro-4-(trifluoromethyl)benzyl)-1,8-diazaspiro[4.5]decane-8-carbonyl)-1H-pyrazol-3-yl) methanesulfonamide]	≥ 75	0 to 25	≤ 0.1	–	–	–
CS(=O)(=O)Nc1ccn(C(=O)N2CCN(Cc3ccc(C(F)(F)F)cc3N3C4CCC3CN(S(C)(=O)=O)C4)CC2)n1 [Example 208, N-(1-(4-(2-(3-(methylsulfonyl)-3,8-diazabicyclo[3.2.1]octan-8-yl)-4-(trifluoromethyl)benzyl)piperazine-1-carbonyl)-1H-pyrazol-3-yl) methanesulfonamide]	≥ 75	0 to 25	≤ 0.1	–	–	–

Now from value to molecule:

inhibition at 1 µM (MAGL [1]) [%]	inhibition at 1 µM (FAAH) [%]	IC50 (MAGL [2]) [µM]	inhibition at 1 µM (MAGL [2]; at 1 μM, read-out: MAGL human % inh at 1 μM) [%]	IC50 (MAGL [1]) [µM]	IC50 (FAAH) [µM]	Structure (SMILES)
≥ 75	0 to 25	≤ 0.1	–	–	–	CC(=O)N1CC2(CCN(c3cc(C(F)(F)F)ccc3CN3CCN(C(=O)n4ccc(NS(C)(=O)=O)n4)CC3)CC2)C1 [Example 228, N-(1-(4-(2-(2-acetyl-2,7-diazaspiro[3.5]nonan-7-yl)-4-(trifluoromethyl)benzyl)piperazine-1-carbonyl)-1H-pyrazol-3-yl) methanesulfonamide]
≥ 75	0 to 25	0.1 to 1	–	–	–	CS(=O)(=O)Nc1ccn(C(=O)N2CCN(Cc3ccc(C(F)(F)F)cc3N3CCC(c4nnn[nH]4)CC3)CC2)n1 [Example 240, N-(1-(4-(2-(4-(1H-tetrazol-5-yl)piperidin-1-yl)-4-(trifluoromethyl)benzyl)piperazine-1-carbonyl)-1H-pyrazol-3-yl) methanesulfonamide]
≥ 75	0 to 25	≤ 0.1	–	–	–	CS(=O)(=O)Nc1ccn(C(=O)N2CCN(Cc3ccc(C(F)(F)F)cc3-c3nccs3)CC2)n1 [Example 211, N-(1-(4-(2-(thiazol-2-yl)-4-(trifluoromethyl)benzyl)piperazine-1-carbonyl)-1H-pyrazol-3-yl) methanesulfonamide]
≥ 75	0 to 25	≤ 0.1	–	≤ 0.1	1 to 10	CC(=O)NC1CCN(c2cc(C(F)(F)F)ccc2CN2CCN(C(=O)n3ccc(NS(C)(=O)=O)n3)CC2)CC1 [Example 269, N-(1-(2-((4-(3-(methylsulfonamido)-1H-pyrazole-1-carbonyl)piperazin-1-yl)methyl)-5-(trifluoromethyl)phenyl)piperidin-4-yl)acetamide]
≥ 75	0 to 25	≤ 0.1	–	–	–	CS(=O)(=O)Nc1ccn(C(=O)N2CCN(Cc3ccc(Cl)c(N4CC[C@@H](O)C4)c3)CC2)n1 [Example 293, (R)-N-(1-(4-(4-chloro-3-(3-hydroxypyrrolidin-1-yl)benzyl)piperazine-1-carbonyl)-1H-pyrazol-3-yl) methanesulfonamide]
≥ 75	0 to 25	0.1 to 1	–	–	–	CS(=O)(=O)Nc1ccn(C(=O)N2CCN(Cc3ccc(C(F)(F)F)cc3-c3ccn(CC(=O)O)n3)CC2)n1 [Example 213, 2-(3-(2-((4-(3-(methylsulfonamido)-1H-pyrazole-1-carbonyl)piperazin-1-yl)methyl)-5-(trifluoromethyl)phenyl)-1H-pyrazol-1-yl)acetic acid]
≥ 75	0 to 25	≤ 0.1	–	–	–	CC(C)n1cc(-c2cc(CN3CCN(C(=O)n4ccc(NS(C)(=O)=O)n4)CC3)ccc2Cl)cn1 [Example 237, N-(1-(4-(4-chloro-3-(1-isopropyl-1H-pyrazol-4-yl)benzyl)piperazine-1-carbonyl)-1H-pyrazol-3-yl) methanesulfonamide]
≥ 75	0 to 25	≤ 0.1	–	–	–	CS(=O)(=O)Nc1ccn(C(=O)N2CCN(Cc3ccc(Cl)cc3N3CCC(F)CC3)CC2)n1 [Example 227, N-(1-(4-(4-chloro-2-(4-fluoropiperidin-1-yl)benzyl)piperazine-1-carbonyl)-1H-pyrazol-3-yl) methanesulfonamide]
≥ 75	0 to 25	≤ 0.1	–	–	–	CS(=O)(=O)Nc1ccn(C(=O)N2CCN(Cc3ccc(C(F)(F)F)cc3N3CCC4(CCN(S(C)(=O)=O)CC4)C3)CC2)n1 [Example 235, N-(1-(4-(2-(8-(methylsulfonyl)-2,8-diazaspiro[4.5]decan-2-yl)-4-(trifluoromethyl)benzyl)piperazine-1-carbonyl)-1H-pyrazol-3-yl) methanesulfonamide]
